Measurements from ChEMBL document CHEMBL4507279, “Data for DCP probe BI-9627” (2021).

Key:
[1] = target: Serine/threonine-protein kinase ULK1 (Homo sapiens) (UniProt O75385); settings: Compound concentration 1000.0 nM
[2] = target: Tyrosine-protein kinase SYK (Homo sapiens) (UniProt P43405); settings: Compound concentration 1000.0 nM
[3] = tested on: Epidermal growth factor receptor (Homo sapiens), P00533 [L858R,T790M]; settings: Compound concentration 1000.0 nM
[4] = target: Tyrosine-protein kinase Tec (Homo sapiens) (UniProt P42680); settings: Compound concentration 1000.0 nM
[5] = target: Serine/threonine-protein kinase VRK2 (Homo sapiens) (UniProt Q86Y07); settings: Compound concentration 1000.0 nM
[6] = target: Serine/threonine-protein kinase PLK3 (Homo sapiens) (UniProt Q9H4B4); settings: Compound concentration 1000.0 nM
[7] = target: Serine/threonine-protein kinase MARK2 (Homo sapiens) (UniProt Q7KZI7); settings: Compound concentration 1000.0 nM
[8] = target: Muscarinic acetylcholine receptor M4 (Homo sapiens) (UniProt P08173); settings: Compound concentration 10.0 uM
[9] = target: Ephrin type-B receptor 2 (Homo sapiens) (UniProt P29323); settings: Compound concentration 1000.0 nM
[10] = target: Tyrosine-protein kinase Fes/Fps (Homo sapiens) (UniProt P07332); settings: Compound concentration 1000.0 nM
[11] = tested on: Receptor-type tyrosine-protein kinase FLT3 (Homo sapiens), P36888 [UNDEFINED MUTATION]; settings: Compound concentration 1000.0 nM
[12] = tested on: Epidermal growth factor receptor (Homo sapiens), P00533 [UNDEFINED MUTATION]; settings: Compound concentration 1000.0 nM
[13] = target: Activin receptor type-2A (Homo sapiens) (UniProt P27037); settings: Compound concentration 1000.0 nM
[14] = target: Insulin-like growth factor 1 receptor (Homo sapiens) (UniProt P08069); settings: Compound concentration 1000.0 nM
[15] = target: Casein kinase I isoform alpha (Homo sapiens) (UniProt P48729); settings: Compound concentration 1000.0 nM
[16] = target: Protein-tyrosine kinase 2-beta (Homo sapiens) (UniProt Q14289); settings: Compound concentration 1000.0 nM
[17] = target: Serine/threonine-protein kinase 26 (Homo sapiens) (UniProt Q9P289); settings: Compound concentration 1000.0 nM
[18] = target: Serine/threonine-protein kinase SIK2 (Homo sapiens) (UniProt Q9H0K1); settings: Compound concentration 1000.0 nM
[19] = target: Mitogen-activated protein kinase 4 (Homo sapiens) (UniProt P31152); settings: Compound concentration 1000.0 nM
[20] = target: Serine/threonine-protein kinase TNNI3K (Homo sapiens) (UniProt Q59H18); settings: Compound concentration 1000.0 nM
[21] = target: Epidermal growth factor receptor (Homo sapiens) (UniProt P00533); settings: Compound concentration 1000.0 nM
[22] = target: Alpha-1D adrenergic receptor (Homo sapiens, UniProt P25100); experiment: GPCRScan assay: inhibition of Alpha1D; parameters: radioligand conc. used [nm] 0.3 – 1.0, parental cells stable
[23] = target: 1-phosphatidylinositol 3-phosphate 5-kinase (Homo sapiens) (UniProt Q9Y2I7); settings: Compound concentration 1000.0 nM
[24] = target: Inhibitor of nuclear factor kappa-B kinase subunit beta (Homo sapiens) (UniProt O14920); settings: Compound concentration 1000.0 nM
[25] = target: cGMP-dependent protein kinase 2 (Homo sapiens) (UniProt Q13237); settings: Compound concentration 1000.0 nM
[26] = target: Calcium/calmodulin-dependent protein kinase kinase 1 (Homo sapiens) (UniProt Q8N5S9); settings: Compound concentration 1000.0 nM
[27] = target: Calcium/calmodulin-dependent protein kinase type 1D (Homo sapiens) (UniProt Q8IU85); settings: Compound concentration 1000.0 nM
[28] = target: Calcium/calmodulin-dependent protein kinase type II subunit beta (Homo sapiens) (UniProt Q13554); settings: Compound concentration 1000.0 nM
[29] = target: Mitogen-activated protein kinase kinase kinase 12 (Homo sapiens) (UniProt Q12852); settings: Compound concentration 1000.0 nM
[30] = target: Serine/threonine-protein kinase N2 (Homo sapiens) (UniProt Q16513); settings: Compound concentration 1000.0 nM
[31] = target: Receptor-interacting serine/threonine-protein kinase 2 (Homo sapiens) (UniProt O43353); settings: Compound concentration 1000.0 nM
[32] = target: STE20-like serine/threonine-protein kinase (Homo sapiens) (UniProt Q9H2G2); settings: Compound concentration 1000.0 nM
[33] = target: Transient receptor potential cation channel subfamily M member 6 (Homo sapiens) (UniProt Q9BX84); settings: Compound concentration 1000.0 nM
[34] = tested on: Tyrosine-protein kinase ABL1 (Homo sapiens), P00519 [H396P]; settings: Compound concentration 1000.0 nM
[35] = target: Non-receptor tyrosine-protein kinase TYK2 (Homo sapiens) (UniProt P29597); settings: Compound concentration 1000.0 nM
[36] = target: RAC-beta serine/threonine-protein kinase (Homo sapiens) (UniProt P31751); settings: Compound concentration 1000.0 nM
[37] = target: Dual specificity protein kinase CLK2 (Homo sapiens) (UniProt P49760); settings: Compound concentration 1000.0 nM
[38] = target: Alpha-2B adrenergic receptor (Homo sapiens) (UniProt P18089); settings: Compound concentration 10.0 uM
[39] = target: Serine/threonine-protein kinase NLK (Homo sapiens) (UniProt Q9UBE8); settings: Compound concentration 1000.0 nM
[40] = target: Sodium-dependent noradrenaline transporter (Homo sapiens) (UniProt P23975); settings: Compound concentration 10.0 uM
[41] = target: MAP kinase-activated protein kinase 2 (Homo sapiens) (UniProt P49137); settings: Compound concentration 1000.0 nM
[42] = target: Mast/stem cell growth factor receptor Kit (Homo sapiens) (UniProt P10721); settings: Compound concentration 1000.0 nM
[43] = target: Phosphatidylinositol 4-phosphate 3-kinase C2 domain-containing subunit beta (Homo sapiens) (UniProt O00750); settings: Compound concentration 1000.0 nM
[44] = target: Phosphatidylinositol 4-phosphate 5-kinase type-1 gamma (Homo sapiens) (UniProt O60331); settings: Compound concentration 1000.0 nM
[45] = tested on: Hepatocyte growth factor receptor (Homo sapiens), P08581 [Y1235D]; settings: Compound concentration 1000.0 nM

Sequence of Serine/threonine-protein kinase PLK3 (Homo sapiens) (Q9H4B4 whole entry, looked up): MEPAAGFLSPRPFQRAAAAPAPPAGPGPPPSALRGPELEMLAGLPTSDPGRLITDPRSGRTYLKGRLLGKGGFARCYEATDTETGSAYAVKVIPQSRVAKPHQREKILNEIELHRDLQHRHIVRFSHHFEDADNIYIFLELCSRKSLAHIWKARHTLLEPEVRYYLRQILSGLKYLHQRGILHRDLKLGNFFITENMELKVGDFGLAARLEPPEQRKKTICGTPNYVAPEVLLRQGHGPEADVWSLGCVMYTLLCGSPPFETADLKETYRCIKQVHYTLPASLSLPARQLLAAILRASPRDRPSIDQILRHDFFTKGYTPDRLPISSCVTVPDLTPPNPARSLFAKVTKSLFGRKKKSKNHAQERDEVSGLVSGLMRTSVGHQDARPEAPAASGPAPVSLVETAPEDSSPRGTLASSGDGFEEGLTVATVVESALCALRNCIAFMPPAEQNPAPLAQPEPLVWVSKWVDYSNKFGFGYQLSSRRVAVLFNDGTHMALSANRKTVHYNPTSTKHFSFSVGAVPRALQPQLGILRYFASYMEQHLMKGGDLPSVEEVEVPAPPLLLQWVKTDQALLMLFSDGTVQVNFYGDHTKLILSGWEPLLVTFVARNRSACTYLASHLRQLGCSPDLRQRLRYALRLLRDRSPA
Sequence of Tyrosine-protein kinase Tec (Homo sapiens) (P42680 whole entry): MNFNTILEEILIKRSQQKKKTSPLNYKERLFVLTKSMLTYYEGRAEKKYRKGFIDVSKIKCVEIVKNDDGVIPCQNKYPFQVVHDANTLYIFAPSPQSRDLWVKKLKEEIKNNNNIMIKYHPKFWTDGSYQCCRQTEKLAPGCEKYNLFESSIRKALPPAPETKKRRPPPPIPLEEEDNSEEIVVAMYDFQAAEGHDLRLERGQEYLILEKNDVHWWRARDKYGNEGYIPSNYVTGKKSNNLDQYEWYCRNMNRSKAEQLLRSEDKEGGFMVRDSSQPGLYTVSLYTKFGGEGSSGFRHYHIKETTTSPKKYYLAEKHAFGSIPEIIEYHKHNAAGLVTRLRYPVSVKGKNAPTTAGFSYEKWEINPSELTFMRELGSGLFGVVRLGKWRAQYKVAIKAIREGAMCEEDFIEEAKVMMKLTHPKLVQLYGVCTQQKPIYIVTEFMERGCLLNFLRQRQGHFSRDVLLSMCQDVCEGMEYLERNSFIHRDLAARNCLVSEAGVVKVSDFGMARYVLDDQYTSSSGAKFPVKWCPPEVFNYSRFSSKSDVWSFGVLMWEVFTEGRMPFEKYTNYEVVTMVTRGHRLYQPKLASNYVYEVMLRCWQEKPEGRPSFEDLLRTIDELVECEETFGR
Sequence of cGMP-dependent protein kinase 2 (Homo sapiens) (Q13237 whole entry): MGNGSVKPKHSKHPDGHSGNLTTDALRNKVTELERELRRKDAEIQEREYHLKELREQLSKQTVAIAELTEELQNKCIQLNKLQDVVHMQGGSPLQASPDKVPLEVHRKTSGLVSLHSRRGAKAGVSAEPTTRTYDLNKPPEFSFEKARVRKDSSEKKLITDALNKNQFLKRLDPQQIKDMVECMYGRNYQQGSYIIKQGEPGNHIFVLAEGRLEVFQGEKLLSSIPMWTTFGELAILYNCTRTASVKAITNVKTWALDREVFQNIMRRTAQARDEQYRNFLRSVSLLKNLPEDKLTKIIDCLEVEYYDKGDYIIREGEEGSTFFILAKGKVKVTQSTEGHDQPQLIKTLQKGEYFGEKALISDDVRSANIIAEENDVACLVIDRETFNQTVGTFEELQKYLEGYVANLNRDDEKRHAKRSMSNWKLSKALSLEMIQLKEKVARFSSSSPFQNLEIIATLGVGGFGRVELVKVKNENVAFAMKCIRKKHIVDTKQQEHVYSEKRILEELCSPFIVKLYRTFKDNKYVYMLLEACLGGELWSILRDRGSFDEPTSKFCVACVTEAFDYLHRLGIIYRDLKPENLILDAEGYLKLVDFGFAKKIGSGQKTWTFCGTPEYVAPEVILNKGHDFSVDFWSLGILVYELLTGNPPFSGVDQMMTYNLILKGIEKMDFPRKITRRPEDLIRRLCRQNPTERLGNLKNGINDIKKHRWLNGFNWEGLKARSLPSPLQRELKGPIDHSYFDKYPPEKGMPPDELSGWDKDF
Sequence of Serine/threonine-protein kinase SIK2 (Homo sapiens) (Q9H0K1 whole entry, looked up): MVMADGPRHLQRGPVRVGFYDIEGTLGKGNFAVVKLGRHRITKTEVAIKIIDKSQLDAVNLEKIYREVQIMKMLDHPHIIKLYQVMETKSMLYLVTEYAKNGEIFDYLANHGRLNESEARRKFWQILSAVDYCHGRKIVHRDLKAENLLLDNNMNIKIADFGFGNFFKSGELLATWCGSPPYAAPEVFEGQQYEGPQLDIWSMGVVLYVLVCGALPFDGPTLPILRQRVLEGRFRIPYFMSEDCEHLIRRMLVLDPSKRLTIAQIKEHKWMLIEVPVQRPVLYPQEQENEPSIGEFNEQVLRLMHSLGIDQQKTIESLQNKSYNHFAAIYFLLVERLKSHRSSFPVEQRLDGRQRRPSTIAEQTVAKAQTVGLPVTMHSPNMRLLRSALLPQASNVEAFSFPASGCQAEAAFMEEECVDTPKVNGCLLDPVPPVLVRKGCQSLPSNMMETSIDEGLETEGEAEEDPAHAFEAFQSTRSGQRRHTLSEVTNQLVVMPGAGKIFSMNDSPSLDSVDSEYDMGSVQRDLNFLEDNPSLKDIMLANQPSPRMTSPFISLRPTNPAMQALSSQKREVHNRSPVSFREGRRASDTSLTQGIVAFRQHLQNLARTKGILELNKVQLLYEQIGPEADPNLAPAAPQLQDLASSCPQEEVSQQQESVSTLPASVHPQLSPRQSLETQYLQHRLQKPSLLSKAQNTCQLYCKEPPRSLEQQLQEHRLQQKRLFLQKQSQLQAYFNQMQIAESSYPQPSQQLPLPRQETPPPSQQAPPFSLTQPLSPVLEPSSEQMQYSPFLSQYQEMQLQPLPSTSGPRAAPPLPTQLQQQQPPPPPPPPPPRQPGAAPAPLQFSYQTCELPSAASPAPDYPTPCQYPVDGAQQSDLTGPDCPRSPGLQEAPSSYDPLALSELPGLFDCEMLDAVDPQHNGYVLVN
Sequence of Muscarinic acetylcholine receptor M4 (Homo sapiens) (P08173 whole entry): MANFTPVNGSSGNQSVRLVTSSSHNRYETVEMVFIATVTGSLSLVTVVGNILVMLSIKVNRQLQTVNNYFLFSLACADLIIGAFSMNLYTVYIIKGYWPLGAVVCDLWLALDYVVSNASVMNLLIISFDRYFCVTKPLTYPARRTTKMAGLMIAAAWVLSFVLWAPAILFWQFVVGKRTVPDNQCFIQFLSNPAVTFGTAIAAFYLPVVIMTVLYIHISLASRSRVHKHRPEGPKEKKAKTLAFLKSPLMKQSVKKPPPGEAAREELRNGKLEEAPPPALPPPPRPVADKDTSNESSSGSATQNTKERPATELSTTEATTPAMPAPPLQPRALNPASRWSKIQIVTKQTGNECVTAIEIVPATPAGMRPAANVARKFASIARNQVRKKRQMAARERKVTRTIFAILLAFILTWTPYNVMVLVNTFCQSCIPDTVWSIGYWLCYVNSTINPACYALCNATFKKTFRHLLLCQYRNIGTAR
Sequence of MAP kinase-activated protein kinase 2 (Homo sapiens) (P49137 whole entry, looked up): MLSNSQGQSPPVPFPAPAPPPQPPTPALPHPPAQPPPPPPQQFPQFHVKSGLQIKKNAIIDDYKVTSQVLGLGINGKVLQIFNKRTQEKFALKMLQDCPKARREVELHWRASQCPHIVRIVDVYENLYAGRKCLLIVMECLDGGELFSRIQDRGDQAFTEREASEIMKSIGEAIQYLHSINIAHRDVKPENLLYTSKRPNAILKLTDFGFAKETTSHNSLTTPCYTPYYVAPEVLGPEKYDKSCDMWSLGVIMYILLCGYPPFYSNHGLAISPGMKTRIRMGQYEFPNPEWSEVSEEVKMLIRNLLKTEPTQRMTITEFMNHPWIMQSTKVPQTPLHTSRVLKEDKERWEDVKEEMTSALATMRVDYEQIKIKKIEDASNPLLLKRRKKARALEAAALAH
Sequence of Protein-tyrosine kinase 2-beta (Homo sapiens) (Q14289 whole entry, looked up): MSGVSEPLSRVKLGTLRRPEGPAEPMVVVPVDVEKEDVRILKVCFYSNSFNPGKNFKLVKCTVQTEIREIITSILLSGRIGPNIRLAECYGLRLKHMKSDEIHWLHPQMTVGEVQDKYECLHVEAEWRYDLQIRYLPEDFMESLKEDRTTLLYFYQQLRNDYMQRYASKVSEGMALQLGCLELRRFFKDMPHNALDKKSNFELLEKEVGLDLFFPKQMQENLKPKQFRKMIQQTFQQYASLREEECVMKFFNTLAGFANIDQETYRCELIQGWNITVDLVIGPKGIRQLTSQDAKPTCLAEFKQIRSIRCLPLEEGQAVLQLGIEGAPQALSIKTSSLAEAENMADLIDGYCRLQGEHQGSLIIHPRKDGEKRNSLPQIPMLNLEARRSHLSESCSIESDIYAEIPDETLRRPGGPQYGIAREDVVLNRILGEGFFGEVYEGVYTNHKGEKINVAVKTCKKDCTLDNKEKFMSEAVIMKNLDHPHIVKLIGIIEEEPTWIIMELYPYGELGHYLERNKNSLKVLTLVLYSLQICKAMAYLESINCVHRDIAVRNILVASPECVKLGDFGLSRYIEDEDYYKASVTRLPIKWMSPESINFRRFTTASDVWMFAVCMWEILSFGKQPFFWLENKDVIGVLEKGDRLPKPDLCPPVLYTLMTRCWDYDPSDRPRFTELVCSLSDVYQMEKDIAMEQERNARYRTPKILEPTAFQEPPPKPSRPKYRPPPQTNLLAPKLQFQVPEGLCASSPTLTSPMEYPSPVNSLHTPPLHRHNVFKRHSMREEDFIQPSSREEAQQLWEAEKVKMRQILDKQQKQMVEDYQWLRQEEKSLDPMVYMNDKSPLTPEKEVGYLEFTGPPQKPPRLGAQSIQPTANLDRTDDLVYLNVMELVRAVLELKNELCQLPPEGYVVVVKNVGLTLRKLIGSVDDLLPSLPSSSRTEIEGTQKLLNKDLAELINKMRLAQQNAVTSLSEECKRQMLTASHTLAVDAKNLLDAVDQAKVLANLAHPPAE

Work on `CC(=O)N1CCC(c2ccc(C(=O)NC3=NCCN3)cc2C(F)(F)F)CC1` [BI 0054] yielded a residual activity [1] of 85%, a residual activity [2] of 100% and a residual activity [3] of 100%. It also gave a residual activity [4] of 100%, a residual activity [5] of 100% and a residual activity [6] of 78%. It also gave a residual activity [7] of 100%, an inhibition [8] of 19.9% and a residual activity [9] of 82%. The residual activity [10] was 100%, the residual activity [11] was 100% and the residual activity [12] was 100%. The residual activity [13] was 100%, the residual activity [14] was 100% and the residual activity [15] was 76%. For the same compound, the residual activity [16] was 100%, the residual activity [17] was 89% and the residual activity [18] was 100%. The residual activity [19] was 87%, the residual activity [20] was 98% and the residual activity [21] was 100%. For the same compound, the Ki [22] was 10 µM, the residual activity [23] was 88% and the residual activity [24] was 85%. The residual activity [25] was 100%, the residual activity [26] was 100% and the residual activity [27] was 100%. It also gave a residual activity [28] of 88%, a residual activity [29] of 100% and a residual activity [30] of 100%. It also gave a residual activity [31] of 100%, a residual activity [32] of 94% and a residual activity [33] of 90%. The residual activity [34] was 100%, the residual activity [35] was 100% and the residual activity [36] was 91%. The residual activity [37] was 91%, the inhibition [38] was 1.01% and the residual activity [39] was 100%. The inhibition [40] was 21.5%, the residual activity [41] was 100% and the residual activity [42] was 91%. For the same compound, the residual activity [43] was 50%, the residual activity [44] was 99% and the residual activity [45] was 100%.

With `CC(=O)N1CCC(c2ccc(C(=O)NC(=N)N)cc2C(F)(F)F)CC1` [BI 9627] the residual activity [1] was 100%, the residual activity [2] was 100% and the residual activity [3] was 100%. For the same compound, the residual activity [4] was 100%, the residual activity [5] was 100% and the residual activity [6] was 82%. For the same compound, the residual activity [7] was 100%, the inhibition [8] was 22.3% and the residual activity [9] was 100%. The residual activity [10] was 96%, the residual activity [11] was 91% and the residual activity [12] was 100%. The residual activity [13] was 100%, the residual activity [14] was 100% and the residual activity [15] was 92%. For the same compound, the residual activity [16] was 100%, the residual activity [17] was 97% and the residual activity [18] was 100%. It also gave a residual activity [19] of 100%, a residual activity [20] of 100% and a residual activity [21] of 100%. For the same compound, the Ki [22] was 10 µM, the residual activity [23] was 84% and the residual activity [24] was 100%. It also gave a residual activity [25] of 100%, a residual activity [26] of 100% and a residual activity [27] of 95%. The residual activity [28] was 100%, the residual activity [29] was 100% and the residual activity [30] was 100%. It also gave a residual activity [31] of 100%, a residual activity [32] of 100% and a residual activity [33] of 98%. The residual activity [34] was 86%, the residual activity [35] was 100% and the residual activity [36] was 99%. The residual activity [37] was 100%, the inhibition [38] was 6.29% and the residual activity [39] was 100%. The inhibition [40] was 28.6%, the residual activity [41] was 100% and the residual activity [42] was 95%. For the same compound, the residual activity [43] was 95%, the residual activity [44] was 100% and the residual activity [45] was 100%.
